One data set is described as follows: Stability of KMD-3213. In kind it is physicochemical.
The nature of the next data set: Solubility of KMD-3213. In kind it is physicochemical.

Consider `C[C@H](Cc1cc2c(c(C(N)=O)c1)N(CCCO)CC2)NCCOc1ccccc1OCC(F)(F)F` [KMD-3213], for which the stability result is on record as “relatively unstable” in “Stability of KMD-3213” (against a light exposure) and “stable” in the data set “Stability of KMD-3213” (in acidic conditions). For the same molecule, the solubility result in “Solubility of KMD-3213” (in a neutral medium such as water) was “hardly soluble”; in “Solubility of KMD-3213” (in an acidic medium) it was “relatively a high solubility”.

These data come from patent US20120064154A1, “SOLID DRUG FOR ORAL USE” (KISSEI PHARMACEUTICAL CO., LTD., priority 2002, published 2012).
